Test results published in US9988371B2, “Benzimidazole analogues and related methods” (The Arizona Board of Regents, on Behalf of the University …, priority 2014, dated 2018).
“Also recorded” adds a separate entry of the source.

Columns and labels:
[1] = system: RET (RET/C634Y, RET/M918T, RET/C634W, RET/PTC1, RET/PTC3, KIF5B-RET, RET/C634R-V804M); test: RET auto-phosphorylation immunoblot, all cell lines and mutations tested; type: cell-based
Experimental: FIG. 1: Photographs of blots showing inhibition of phosphorylation of RET/C634Y and RET/M918T in intact cells by Pz-1 or vehicle (NT: not treated). Serum-starved NIH3T3 cells expressing RET/C634Y or RET/M918T mutants were treated for 2 hr with indicated concentrations of Pz-1. 50 μg of total cell lysates were subjected to immunoblotting with anti-phospho-Y1062 (αp1062) or anti-phospho-Y905 (αp905) RET antibodies. The blots were normalized using anti-RET (αRET) antibodies.
FIG. 2: Photographs of blots showing inhibition of phosphorylation of gate-keeper RET point mutant and rearranged RET oncoproteins by Pz-1 or vehicle (NT: not treated). HEK293 cells were transiently transfected with vectors expressing RET/C634R-V804M mutant (V804 is the gate-keeper RET residue), or RET/PTC1 (CCDC6-RET, found in papillary thyroid carcinoma and lung adenocarcinoma), RET/PTC3 (NCOA4-RET, found in papillary thyroid carcinoma and lung adenocarcinoma), or KIF5B-RET (found in lung adenocarcinoma). After 36 hr from transfection, cells were serum-starved for 12 hr and then treated for 2 hr with indicated concentrations of Pz-1. 50 μg of total cell lysates were subjected to immunoblotting with anti-phospho-Y1062 (αp1062) and anti-phospho-Y905 (αp905) RET antibodies. The blots were normalized using anti-RET (αRET) antibody.
FIG. 3: Photographs of blots showing inhibition of RET protein endogenously expressed in TT cells (human MTC cell line expressing RET/C634W) by indicated concentrations of Pz-1 or vehicle (NT: not treated) and reduced effects in thyroid non-transformed Nthy-ori-3-1 cells. […]
The inhibition of RET auto-phosphorylation by Pz-1 was measured in several different cell lines including NIH3T3 fibroblasts expressing RET/C634Y or RET/M918T, TT expressing RET/C634W (MTC), Nthy-ory-3-1 (thyroid, non-transformed with RET; negative control), HEK293/RET/PTC1 (CCDC6-RET that can be found in PTC & lung cancer), HEK293/RET-KIF5B (that can be found in lung cancer), HEK293/RET/PTC3 (NCOA4-RET, that can be found in PTC & lung cancer), and HEK293 transfected with RET/C634R-V804M (FIGS. 1-3). […]

[2] = system: intracellular signaling (SHC, MAPK, p70S6K and S6RP); test: In vivo target inhibition, RET phosphorylation and signaling in HRAS/G12V-induced tumors; design: species or system nude mice; conditions: 48 hr, 1.0 or 3.0 mg/kg daily
Experimental: (§1) FIG. 9: Photographs of blots showing effects of Pz-1 on cellular phosphorylation events in tumors induced in nude mice (from FIG. 8) by injection of NIH3T3 fibroblasts transformed by RET/C634Y or HRAS/G12V. […] Some of the vehicle-treated tumors, at the end of the tumor growth experiment described in FIG. 8, were treated for 48 hr with different doses of Pz-1 (TR) or left untreated (NT). At the end of the treatment, 50 μg of tumor protein lysates were subjected to immunoblotting with anti-phospho-Y1062 (αp1062) and anti-phospho-905 (αpY905) RET antibodies, anti-phospho-MAPK (αpMAPK, T302/Y304), anti-phospho-SHC (αpSHC, Y317), anti-phospho-p70S6K (αpp70S6K, T389), anti-phospho-S6RP (αpS6RP, S235/S236), and anti-phospho-VEGFR2 (αpVEGFR2 pY1175) antibodies. The blots were normalized using anti-RET (αRET), anti-SHC (αSHC), anti-MAPK (αMAPK), anti-p70S6K (αp70S6K), anti-S6RP (αS6RP) or anti-VEGFR2 (αVEGFR2) antibodies.
(§2) Some of the vehicle-treated tumors, at the end of the tumor growth experiment reported in FIG. 8, were treated for 48 hr with different doses of Pz-1 (1.0 or 3.0 mg/kg daily) or left untreated. […]

VEGFR2 = target: T1, VEGFR2 (Mus musculus, UniProt P35918); test: In vivo target inhibition, pVEGFR2 in RET/C634Y-induced tumors; design: species or system nude mice; conditions: 48 hr, 1.0 or 3.0 mg/kg daily
T1 construct: from tissue; host or cells: subcutaneous tumours (NIH3T3 RET/C634Y or NIH3T3 HRAS/G12V) in BALB/c nu/nu mice
Experimental: as §1, §2

T1 sequence (P35918 20-1345): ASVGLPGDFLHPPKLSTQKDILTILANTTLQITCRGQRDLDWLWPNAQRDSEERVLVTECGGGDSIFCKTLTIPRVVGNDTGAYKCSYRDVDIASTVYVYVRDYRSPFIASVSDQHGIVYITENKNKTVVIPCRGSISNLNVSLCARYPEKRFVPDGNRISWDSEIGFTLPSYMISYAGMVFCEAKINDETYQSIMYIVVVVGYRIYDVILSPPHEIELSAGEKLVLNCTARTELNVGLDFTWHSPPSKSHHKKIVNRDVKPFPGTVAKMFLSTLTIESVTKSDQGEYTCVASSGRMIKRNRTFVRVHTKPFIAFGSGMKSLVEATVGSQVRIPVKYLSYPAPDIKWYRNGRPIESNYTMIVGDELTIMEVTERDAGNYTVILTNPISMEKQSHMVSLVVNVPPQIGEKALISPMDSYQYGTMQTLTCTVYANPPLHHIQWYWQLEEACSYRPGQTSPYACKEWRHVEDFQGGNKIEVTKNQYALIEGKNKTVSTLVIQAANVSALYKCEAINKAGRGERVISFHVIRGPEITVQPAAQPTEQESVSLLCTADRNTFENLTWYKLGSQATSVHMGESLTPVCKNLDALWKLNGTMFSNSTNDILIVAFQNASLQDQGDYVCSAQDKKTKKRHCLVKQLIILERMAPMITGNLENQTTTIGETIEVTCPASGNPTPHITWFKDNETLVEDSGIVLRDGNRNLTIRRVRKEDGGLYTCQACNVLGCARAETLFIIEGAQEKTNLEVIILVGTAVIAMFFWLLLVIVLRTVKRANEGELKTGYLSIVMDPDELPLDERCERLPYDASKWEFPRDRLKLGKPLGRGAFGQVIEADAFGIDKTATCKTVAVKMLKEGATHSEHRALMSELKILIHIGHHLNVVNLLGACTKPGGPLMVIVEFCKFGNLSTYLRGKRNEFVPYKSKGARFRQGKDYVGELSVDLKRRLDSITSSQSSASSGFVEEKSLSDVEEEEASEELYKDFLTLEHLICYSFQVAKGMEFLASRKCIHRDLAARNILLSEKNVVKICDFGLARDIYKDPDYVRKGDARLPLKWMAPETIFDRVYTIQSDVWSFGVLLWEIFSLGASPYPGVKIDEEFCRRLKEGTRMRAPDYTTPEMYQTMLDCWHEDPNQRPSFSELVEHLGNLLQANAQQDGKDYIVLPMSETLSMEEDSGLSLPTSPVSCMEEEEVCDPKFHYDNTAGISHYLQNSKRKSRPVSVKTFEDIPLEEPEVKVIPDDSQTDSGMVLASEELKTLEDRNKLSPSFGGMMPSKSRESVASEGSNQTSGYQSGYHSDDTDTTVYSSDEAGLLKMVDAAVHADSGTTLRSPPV

## Cn1cc(-c2ccc3c(c2)ncn3-c2ccc(CC(=O)Nc3cc(C(C)(C)C)on3)cc2)cn1 [Pz-1, N-(5-(tert-butyl)isoxazol-3-yl)-2-(4-(5-(1-methyl-1H-pyrazol-4-yl)-1H-benzo[d]imidazol-1-yl)phenyl)acetamide]
[1]; 1 nM, 2 hrs, all cell-lines
  inhibition of pRET: strong inhibition; also recorded: strongly inhibited
[1]; FIGS. 1-3
  concentration at which potent on RET and all tested RET mutants including RET/V804M: less than 1 nM
[1]; nanomolar concentrations, all cell lines and mutations tested
  inhibition of RET auto-phosphorylation: 90%
[2]
  RET phosphorylation and intracellular signaling (SHC, MAPK, p70S6K and S6RP) in tumors: only in RET/C634Y-induced tumors
VEGFR2
  pVEGFR2 in tumors: inhibited
